Consider 21 compounds from patent US20240018122A1, “PYRIDAZINYL AMINO DERIVATIVES AS ALK5 INHIBITORS” (CHIESI FARMACEUTICI S.P.A., priority 2020, published 2024).

In the first assay the target is human ALK5 (Homo sapiens (Human), UniProt P36897). In words: ADP-GLO Kinases assay, inhibitory activity on ALK5.
Chain of human ALK5 (P36897 80-503 limits assumed): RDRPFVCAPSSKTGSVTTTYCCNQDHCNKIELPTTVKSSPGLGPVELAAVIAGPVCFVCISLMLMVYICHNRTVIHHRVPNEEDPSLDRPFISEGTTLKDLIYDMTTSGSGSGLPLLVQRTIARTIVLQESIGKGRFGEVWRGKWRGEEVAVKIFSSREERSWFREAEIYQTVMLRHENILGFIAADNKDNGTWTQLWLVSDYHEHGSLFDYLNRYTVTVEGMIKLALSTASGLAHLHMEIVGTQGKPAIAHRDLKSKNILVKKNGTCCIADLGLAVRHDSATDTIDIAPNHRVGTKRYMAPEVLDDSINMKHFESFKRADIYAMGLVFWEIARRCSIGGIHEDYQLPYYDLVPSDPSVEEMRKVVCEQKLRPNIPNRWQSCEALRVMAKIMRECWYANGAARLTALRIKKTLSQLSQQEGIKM
Conditions: not given
The class given is biochemical.
For `CN1CC2(CCN(C(=O)Oc3ccc4c(Nc5cnnc(-c6cc(Cl)ccc6F)c5)ccnc4c3)C2)C1` [Example 119, 4-{[6-(5-Chloro-2-Fluorophenyl)Pyridazin-4-Yl]Amino}Quinolin-7-Yl 2-Methyl-2,6-Diazaspiro[3.4]Octane-6-Carboxylate], the IC50 (as a rule, the concentration needed to halve the response being measured) was 1 to 5 nM. Same read-out and setting: in the case of `Cc1nnc(-c2cc(Cl)ccc2F)cc1Nc1ccnc2cc(OC(=O)N3CC4CC3CN4C)ccc12` (stereo not drawn) [Example 128, 4-{[6-(5-Chloro-2-Fluorophenyl)-3-Methylpyridazin-4-Yl]Amino}Quinolin-7-Yl 5-Methyl-2,5-Diazabicyclo[2.2.1]Heptane-2-Carboxylate] it was below 1 nM.

The assay is the same for the next values; noted with them: purified recombinant human ALK5 2.6 nM, TGFβ1 peptide substrate, 25° C, 150 min incubation, ADP-Glo detection; read-out: ALK5 IC50.
Turning to `Cc1nnc(-c2cc(Cl)ccc2F)cc1Nc1ccnc(NC(=O)CCN2CCNC(CC(=O)O)C2)c1` (stereo not drawn) [Example 116, 2-(4-{2-[(4-{[6-(5-chloro-2-fluorophenyl)-3-methylpyridazin-4-yl]amino}pyridin-2-yl)carbamoyl]ethyl}piperazin-2-yl)acetic acid], the IC50 was below 1 nM. On the same count and under the same terms, the value for `Cc1nnc(-c2cc(Cl)ccc2F)cc1Nc1ccnc(NC(=O)CN2CCOCC2)c1` [Example 117, N-(4-{[6-(5-Chloro-2-Fluorophenyl)-3-Methylpyridazin-4-Yl]Amino}Pyridin-2-Yl)-2-(Morpholin-4-Yl)Acetamide] was below 1 nM; that for `CN1CCC2(CC1)CCN(C(=O)Oc1ccc3c(Nc4cnnc(-c5cc(Cl)ccc5F)c4)ccnc3c1)C2` [Example 118, 4-{[6-(5-Chloro-2-Fluorophenyl)Pyridazin-4-Yl]Amino}Quinolin-7-Yl 8-Methyl-2,8-Diazaspiro[4.5]Decane-2-Carboxylate] was below 1 nM; that for `Cc1nnc(-c2cc(Cl)ccc2F)cc1Nc1ccnc(NC(=O)CCN2CCSCC2)c1` [Example 120, N-(4-{[6-(5-Chloro-2-Fluorophenyl)-3-Methylpyridazin-4-Yl]Amino}Pyridin-2-Yl)-3-(Thiomorpholin-4-Yl)Propanamide] was below 1 nM. The same measure, in the same setting: in the case of `Cc1nnc(-c2cc(Cl)ccc2F)cc1Nc1ccnc(NC(=O)CCN2CC3CC2CN3C)c1` (stereo not drawn) [Example 121, N-(4-{[6-(5-Chloro-2-Fluorophenyl)-3-Methylpyridazin-4-Yl]Amino}Pyridin-2-Yl)-3-{5-Methyl-2,5-Diazabicyclo[2.2.1]Heptan-2-Yl}Propanamide] it was below 1 nM; in that of `CCOC(=O)C1CN(CCC(=O)Nc2cc(Nc3cc(-c4cc(Cl)ccc4F)nnc3C)ccn2)CCN1C` (stereo not drawn) [Example 122, Ethyl 4-{2-[(4-{[6-(5-Chloro-2-Fluorophenyl)-3-Methylpyridazin-4-Yl]Amino}Pyridin-2-Yl)Carbamoyl]Ethyl}-1-Methylpiperazine-2-Carboxylate], below 1 nM; in that of `Cc1nnc(-c2cc(Cl)ccc2F)cc1Nc1ccnc(NC(=O)C[N+]2([O-])CCOCC2)c1` [Example 123, 4-{[(4-{[6-(5-Chloro-2-Fluorophenyl)-3-Methylpyridazin-4-Yl]Amino}Pyridin-2-Yl)Carbamoyl]Methyl}Morpholin-4-Ium-4-Olate], below 1 nM. Same read-out and setting: in the case of `Cc1nnc(-c2cc(Cl)ccc2F)cc1Nc1ccnc(NC(=O)CCN2CCN(CC(F)(F)F)CC2)c1` [Example 124, N-(4-{[6-(5-Chloro-2-Fluorophenyl)-3-Methylpyridazin-4-Yl]Amino}Pyridin-2-Yl)-3-[4-(2,2,2-Trifluoroethyl)Piperazin-1-Yl]Propanamide] it was below 1 nM; in that of `Cc1nnc(-c2cc(Cl)ccc2F)cc1Nc1ccnc(NC(=O)CCN2CCN(C)C(C(=O)OC(C)C)C2)c1` (stereo not drawn) [Example 126, Propan-2-Yl 4-{2-[(4-{[6-(5-Chloro-2-Fluorophenyl)-3-Methylpyridazin-4-Yl]Amino}Pyridin-2-Yl)Carbamoyl]Ethyl}-1-Methylpiperazine-2-Carboxylate], below 1 nM. Turning to `Cc1nnc(-c2cc(Cl)ccc2F)cc1Nc1ccnc(NC(=O)CCN2CCN(C)C(C(=O)OC3CC3)C2)c1` (stereo not drawn) [Example 127, Cyclopropyl 4-{2-[(4-{[6-(5-Chloro-2-Fluorophenyl)-3-Methylpyridazin-4-Yl]Amino}Pyridin-2-Yl)Carbamoyl]Ethyl}-1-Methylpiperazine-2-Carboxylate], the IC50 is below 1 nM. For `Cc1nnc(-c2cc(Cl)ccc2F)cc1Nc1ccnc(NC(=O)CCN2CCN(C)C(C(=O)OC3COC3)C2)c1` (stereo not drawn) [Example 129, oxetan-3-yl 4-{2-[(4-{[6-(5-chloro-2-fluorophenyl)-3-methylpyridazin-4-yl]amino}pyridin-2-yl)carbamoyl]ethyl}-1-methylpiperazine-2-carboxylate], the IC50 is below 1 nM.

For the compound `Cc1nnc(-c2cc(Cl)ccc2F)cc1Nc1ccnc(NC(=O)CCN2CC[S+]([O-])CC2)c1` [Example 130, N-(4-{[6-(5-Chloro-2-Fluorophenyl)-3-Methylpyridazin-4-Yl]Amino}Pyridin-2-Yl)-3-(1-Oxo-1V-Thiomorpholin-4-Yl)Propanamide], the IC50 is below 1 nM. Same read-out and setting: the value for `Cc1nnc(-c2cc(Cl)ccc2F)cc1Nc1ccnc(NC(=O)CN2CCN(CC(F)(F)F)CC2)c1` [Example 131, N-(4-{[6-(5-Chloro-2-Fluorophenyl)-3-Methylpyridazin-4-Yl]Amino}Pyridin-2-Yl)-2-[14-(2,2,2-Trifluoroethyl)Piperazin-1-Yl]Acetamide] was below 1 nM.

Turning to `Cc1nnc(-c2cc(Cl)ccc2F)cc1Nc1ccnc(NC(=O)CCN2CCS(=O)(=O)CC2)c1` [Example 132, N-(4-{[6-(5-Chloro-2-Fluorophenyl)-3-Methylpyridazin-4-Yl]Amino}Pyridin-2-Yl)-3-(1,1-Dioxo-11,6-Thiomorpholin-4-Yl)Propanamide], the IC50 is below 1 nM. Same read-out and setting: in the case of `O=C(Oc1ccc2c(Nc3cnnc(-c4cc(Cl)ccc4F)c3)ccnc2c1)N1CC(N2CCCC2)C1` [Example 133, 4-{[6-(5-Chloro-2-Fluorophenyl)Pyridazin-4-Yl]Amino}Quinolin-7-Yl 3-(Pyrrolidin-1-Yl)Azetidine-1-Carboxylate] it was below 1 nM; in that of `O=C(Oc1ccc2c(Nc3cnnc(-c4cc(Cl)ccc4F)c3)ccnc2c1)N1CCC(N2CCC2)CC1` [Example 134, 4-{[6-(5-Chloro-2-Fluorophenyl)Pyridazin-4-Yl]Amino}Quinolin-7-Yl 4-(Azetidin-1-Yl)Piperidine-1-Carboxylate], below 1 nM. On the same count and under the same terms, the value for `Cc1nnc(-c2cc(Cl)ccc2F)cc1Nc1ccnc(NC(=O)CCN2CCN(C)C3(CC3)C2)c1` [Example 135, N-(4-{[6-(5-Chloro-2-Fluorophenyl)-3-Methylpyridazin-4-Yl]Amino}Pyridin-2-Yl)-3-{4-Methyl-4,7-Diazaspiro[2.5]Octan-7-Yl}Propanamide] was below 1 nM; that for `Cc1nnc(-c2cc(Cl)ccc2F)cc1Nc1ccnc(NC(=O)CCN2CCN(CCNS(C)(=O)=O)CC2)c1` [Example 136, N-(4-{[6-(5-Chloro-2-Fluorophenyl)-3-Methylpyridazin-4-Yl]Amino}Pyridin-2-Yl)-3-[4-(2-Methanesulfonamidoethyl)Piperazin-1-Yl]Propanamide] was below 1 nM; that for `CN1CC2CC1CN2C(=O)Oc1ccc2c(Nc3cnnc(-c4cc(Cl)ccc4F)c3)ccnc2c1` (stereo not drawn) [Example 137, 4-{[6-(5-Chloro-2-Fluorophenyl)Pyridazin-4-Yl]Amino}Quinolin-7-Yl 5-Methyl-2,5-Diazabicyclo[2.2.1]Heptane-2-Carboxylate] was below 1 nM.
